We go through two compounds from PMC7719162, “Positioning of an unprecedented spiro[5.5]undeca ring system into kinase inhibitor space” (Scientific Reports, 2020).

Structures are written as SMILES. Read-outs that look alike come from different tables or passages of the source.

For one experiment, the target named is T1, CDK2/cyclin O (Homo sapiens, UniProt P24941).
T1 construct: purchased Reaction Biology Corp
The settings on record: cited from earlier work.

Experiment [1] deals with NO production in LPS-activated BV-2 cells. As to the kind of experiment: NO production assay (Griess) in LPS-activated BV-2 cells. Type of experiment: cell-based, murine. The settings on record: read-out: NO Inhibition IC50. The method, then:
3-(4,5-dimethylthiazol-2-yl)-2,5-diphenyl-tetrazolium bromide (MTT) assay was performed to evaluate the cytotoxicity of the samples to the microglia. BV2 cells at the density of 4 × 10^4 cells /well were seeded in the 96 well plate and incubated for 24 h. Seeded cells were pre-treated with different concentration of the samples, and LPS (100 ng/ml) activation was performed after 30 min of compound treatment. Treated plate were incubated for 24 h in the incubator and nitric oxide assay and cell viability assay was performed. Treated cell’s conditioned medium was used to evaluate the NO assay, and the attached cells were used to evaluate the cell viability assay. 50 µL of conditioned medium (CM) from treated cells were transferred to a new 96 well plate for NO assay. This CM was mixed with the equal volume of the mixture of Gries reagent ((1% sulfanilamide and 0.1% N-1-napthylethylenediamine dihydrochloride). NaNO2 was used as standard and the colorimetric change were evidenced by measuring its OD at 540 nm in a microplate reader. The cells in the plate were incubated for 1 h with MTT solution making it the final concentration of […]. Blue stained cells were incubated with 200 ul of DMSO and the solution get changed to purple/formazan color and it was observed by measuring the absorbance at 570 nm in a microplate reader.NG-mono-methyl-L-arginine (L-NMMA), a well-known nitric oxide synthase (NOS) inhibitor, was used as a positive control.
A general note: Nitrite, measured by Griess reagent, commonly stands in for NO production.

The next experiment addresses T2, PI3K (p110a(E545K)/p85a) (Homo sapiens, UniProt P42336, E545K).
T2 construct: purchased Reaction Biology Corp
Kind of experiment: Kinase panel assay (lipid kinase). Type of experiment: biochemical. The settings on record: 30 μM compound, ATP 10 μM, duplicates Data 1/Data 2.

A further experiment addresses T3, TRKC (Homo sapiens, UniProt Q16288).
T3 construct: purchased Reaction Biology Corp
As to the kind of experiment: Kinase panel assay (radiolabelled). The class given is biochemical. Conditions: ATP 10 μM.

A further experiment concerns the target T4, EIF2AK2 (Homo sapiens, UniProt P19525).
T4 construct: purchased Reaction Biology Corp
As to the kind of experiment: Kinase panel assay (radiolabelled). The class given is biochemical. The settings on record: 30 μM compound, ATP 10 μM, duplicates Data 1/Data 2.

Another experiment deals with T5, RIPK5 (Homo sapiens, UniProt Q6XUX3).
T5 construct: purchased Reaction Biology Corp
T5 sequence (Q6XUX3 1-929): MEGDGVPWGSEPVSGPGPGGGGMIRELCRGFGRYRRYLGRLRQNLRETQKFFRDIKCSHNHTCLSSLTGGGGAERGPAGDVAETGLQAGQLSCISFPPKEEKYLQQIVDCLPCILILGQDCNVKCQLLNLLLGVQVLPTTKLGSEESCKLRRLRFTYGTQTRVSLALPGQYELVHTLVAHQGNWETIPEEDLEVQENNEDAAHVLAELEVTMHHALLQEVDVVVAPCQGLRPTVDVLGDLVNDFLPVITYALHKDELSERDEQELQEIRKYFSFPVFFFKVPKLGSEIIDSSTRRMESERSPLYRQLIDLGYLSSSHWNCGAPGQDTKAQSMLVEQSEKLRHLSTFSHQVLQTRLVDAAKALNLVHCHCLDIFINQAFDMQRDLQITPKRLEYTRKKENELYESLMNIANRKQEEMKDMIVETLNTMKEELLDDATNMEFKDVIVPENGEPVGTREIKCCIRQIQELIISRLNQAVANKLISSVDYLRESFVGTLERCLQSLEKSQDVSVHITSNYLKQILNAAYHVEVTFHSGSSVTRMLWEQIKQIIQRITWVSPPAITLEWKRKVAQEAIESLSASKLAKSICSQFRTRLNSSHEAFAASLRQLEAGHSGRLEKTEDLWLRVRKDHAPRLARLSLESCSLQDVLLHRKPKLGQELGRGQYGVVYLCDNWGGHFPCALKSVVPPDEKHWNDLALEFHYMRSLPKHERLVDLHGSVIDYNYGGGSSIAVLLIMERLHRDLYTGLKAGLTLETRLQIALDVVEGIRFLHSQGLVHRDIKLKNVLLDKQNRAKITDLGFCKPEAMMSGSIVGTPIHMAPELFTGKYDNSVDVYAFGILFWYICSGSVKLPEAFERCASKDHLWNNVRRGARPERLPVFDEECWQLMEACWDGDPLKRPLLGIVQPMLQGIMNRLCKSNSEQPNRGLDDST
Kind of experiment: Kinase panel assay (radiolabelled). The class given is biochemical. The settings on record: ATP 10 μM.

A further experiment has as its target T6, EIF2AK4 (Homo sapiens, UniProt Q9P2K8).
T6 construct: purchased Reaction Biology Corp
As to the kind of experiment: Kinase panel assay (radiolabelled). The class given is biochemical. The settings on record: 30 μM compound, ATP 10 μM, duplicates Data 1/Data 2.

Experiment [2] addresses T7, PI3K (p110a(H1047R)/p85a) (Homo sapiens, UniProt P42336, H1047R).
T7 construct: purchased Reaction Biology Corp
Kind of experiment: Kinase panel assay (lipid kinase). Type of experiment: biochemical. The settings on record: 30 μM compound, ATP 10 μM, duplicates Data 1/Data 2.

The next experiment has as its target T8, PI3KC2A (Homo sapiens, UniProt O00443).
T8 construct: purchased Reaction Biology Corp
Kind of experiment: Kinase panel assay (lipid kinase). The class given is biochemical. The settings on record: 30 μM compound, ATP 10 μM, duplicates Data 1/Data 2. The method, then: (§1) Every inhibitory activity of tested compounds was measured by radiolabelled method of Reaction Biology Corp). The radiolabelled ATP ([γ-^33P] ATP) replaced a substrate with ^33P-phosphorylated substrate so that the activity of a kinase was measured from the radiolabelled phosphorylated substrate. Kinase panel assay was tested at 30 μM testing compounds with an ATP concentration of 10 μM and a substrate concentration of 10 μM. % Residual activity against GSK3β was measured at 10 uM compounds 1 and 2. […] Curve fits of control compounds were performed where the enzyme activities at the highest concentration of compounds were less than 65%. The concentration of DMSO was controlled and raw data, % kinase activity was calculated relative to DMSO controls.

The next experiment addresses T9, PIP5K1C (Homo sapiens, UniProt O60331).
T9 construct: purchased Reaction Biology Corp
Kind of experiment: Kinase panel assay (lipid kinase). Conditions: 30 μM compound, ATP 10 μM, duplicates Data 1/Data 2. The class given is biochemical. The procedure:
as §1

The target of the next experiment is T10, PI4K2A (Homo sapiens, UniProt Q9BTU6).
T10 construct: purchased Reaction Biology Corp
T10 sequence (Q9BTU6 whole entry): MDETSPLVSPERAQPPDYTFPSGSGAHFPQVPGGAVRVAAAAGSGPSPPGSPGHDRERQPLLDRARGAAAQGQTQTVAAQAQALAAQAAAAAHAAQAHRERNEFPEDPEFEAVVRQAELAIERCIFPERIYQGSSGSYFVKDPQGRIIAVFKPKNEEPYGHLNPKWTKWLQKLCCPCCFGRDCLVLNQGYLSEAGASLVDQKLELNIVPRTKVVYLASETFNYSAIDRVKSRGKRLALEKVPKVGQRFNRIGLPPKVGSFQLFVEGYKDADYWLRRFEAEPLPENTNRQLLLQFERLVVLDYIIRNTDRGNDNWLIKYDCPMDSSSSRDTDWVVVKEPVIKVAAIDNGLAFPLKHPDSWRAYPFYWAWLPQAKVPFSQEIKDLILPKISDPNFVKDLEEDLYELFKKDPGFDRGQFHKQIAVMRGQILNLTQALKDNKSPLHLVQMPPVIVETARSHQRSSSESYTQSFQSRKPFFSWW
Kind of experiment: Kinase panel assay (lipid kinase). Type of experiment: biochemical. The settings on record: 30 μM compound, ATP 10 μM, duplicates Data 1/Data 2. The method, then:
as §1

The next experiment deals with T11, PI3KC3 (Homo sapiens, UniProt Q8NEB9).
T11 construct: purchased Reaction Biology Corp
As to the kind of experiment: Kinase panel assay (lipid kinase). Type of experiment: biochemical. Conditions: 30 μM compound, ATP 10 μM, duplicates Data 1/Data 2. The procedure:
as §1

The target in a further experiment is T12, PIP5K1A (Homo sapiens, UniProt Q99755).
T12 construct: purchased Reaction Biology Corp
As to the kind of experiment: Kinase panel assay (lipid kinase). Conditions: 30 μM compound, ATP 10 μM, duplicates Data 1/Data 2. Type of experiment: biochemical. The method, then:
as §1

Setting [3] is: read-out: % Enzyme Activity (relative to DMSO controls).
Where [4] appears, read: 30 μM compound, duplicates Data 1/Data 2.
Setting [5] is: 30 μM compound, duplicates Data 1/Data 2, read-out: % Enzyme Activity (relative to DMSO controls).
Where [6] appears, read: 30 μM, average ± SD, read-out: % Residual Activity at 30 μM.

For orientation: IC50 means the concentration needed to halve the response being measured.

T3 sequence (Q16288 32-839): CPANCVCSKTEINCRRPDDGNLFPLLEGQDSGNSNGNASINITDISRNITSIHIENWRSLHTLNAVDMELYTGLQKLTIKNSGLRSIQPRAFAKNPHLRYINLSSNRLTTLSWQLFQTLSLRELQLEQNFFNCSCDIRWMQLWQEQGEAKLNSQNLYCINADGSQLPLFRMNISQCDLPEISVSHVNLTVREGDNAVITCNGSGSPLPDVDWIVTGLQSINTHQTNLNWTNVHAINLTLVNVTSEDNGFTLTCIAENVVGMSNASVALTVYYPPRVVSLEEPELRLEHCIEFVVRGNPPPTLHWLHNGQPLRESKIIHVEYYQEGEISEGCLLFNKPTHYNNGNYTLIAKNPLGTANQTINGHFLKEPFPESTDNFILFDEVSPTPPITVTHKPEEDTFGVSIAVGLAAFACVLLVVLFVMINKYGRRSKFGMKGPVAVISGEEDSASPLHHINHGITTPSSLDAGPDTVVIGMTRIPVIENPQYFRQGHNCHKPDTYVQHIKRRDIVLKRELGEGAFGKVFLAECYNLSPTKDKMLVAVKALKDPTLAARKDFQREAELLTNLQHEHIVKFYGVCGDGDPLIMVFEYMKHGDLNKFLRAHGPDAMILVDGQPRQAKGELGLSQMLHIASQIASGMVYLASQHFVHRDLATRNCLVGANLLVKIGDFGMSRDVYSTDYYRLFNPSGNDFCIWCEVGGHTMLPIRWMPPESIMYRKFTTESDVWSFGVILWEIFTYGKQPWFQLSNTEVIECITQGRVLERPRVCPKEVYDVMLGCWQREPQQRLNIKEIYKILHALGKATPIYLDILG
T7 sequence (P42336 whole entry H1047R): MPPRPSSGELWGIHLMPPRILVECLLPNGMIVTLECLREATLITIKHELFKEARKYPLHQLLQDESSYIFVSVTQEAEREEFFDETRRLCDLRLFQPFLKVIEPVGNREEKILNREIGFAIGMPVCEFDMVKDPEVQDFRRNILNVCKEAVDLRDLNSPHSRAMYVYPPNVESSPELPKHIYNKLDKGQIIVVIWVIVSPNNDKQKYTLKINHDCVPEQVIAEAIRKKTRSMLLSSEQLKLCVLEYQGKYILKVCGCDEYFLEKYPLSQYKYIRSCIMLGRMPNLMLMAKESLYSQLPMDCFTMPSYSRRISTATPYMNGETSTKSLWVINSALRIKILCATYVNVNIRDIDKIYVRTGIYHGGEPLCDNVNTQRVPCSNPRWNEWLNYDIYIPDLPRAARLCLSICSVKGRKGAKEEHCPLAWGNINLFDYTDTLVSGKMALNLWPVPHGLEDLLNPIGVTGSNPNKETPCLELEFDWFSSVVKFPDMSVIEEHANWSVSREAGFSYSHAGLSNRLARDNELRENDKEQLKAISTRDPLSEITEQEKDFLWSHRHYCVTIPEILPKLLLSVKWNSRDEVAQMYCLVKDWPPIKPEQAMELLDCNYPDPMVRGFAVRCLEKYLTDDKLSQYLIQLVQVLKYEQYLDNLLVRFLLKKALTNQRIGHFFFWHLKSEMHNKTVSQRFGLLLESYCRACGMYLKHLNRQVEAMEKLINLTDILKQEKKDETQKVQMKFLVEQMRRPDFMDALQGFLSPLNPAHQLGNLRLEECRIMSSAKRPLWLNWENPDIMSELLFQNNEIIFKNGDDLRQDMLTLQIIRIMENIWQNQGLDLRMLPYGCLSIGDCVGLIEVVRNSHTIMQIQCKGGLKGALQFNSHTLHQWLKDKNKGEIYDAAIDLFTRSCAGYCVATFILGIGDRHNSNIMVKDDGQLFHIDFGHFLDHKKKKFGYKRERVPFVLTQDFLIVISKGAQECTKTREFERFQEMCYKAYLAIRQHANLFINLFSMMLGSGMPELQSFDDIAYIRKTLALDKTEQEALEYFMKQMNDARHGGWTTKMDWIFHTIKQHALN
T7 sequence (P27986 whole entry partner): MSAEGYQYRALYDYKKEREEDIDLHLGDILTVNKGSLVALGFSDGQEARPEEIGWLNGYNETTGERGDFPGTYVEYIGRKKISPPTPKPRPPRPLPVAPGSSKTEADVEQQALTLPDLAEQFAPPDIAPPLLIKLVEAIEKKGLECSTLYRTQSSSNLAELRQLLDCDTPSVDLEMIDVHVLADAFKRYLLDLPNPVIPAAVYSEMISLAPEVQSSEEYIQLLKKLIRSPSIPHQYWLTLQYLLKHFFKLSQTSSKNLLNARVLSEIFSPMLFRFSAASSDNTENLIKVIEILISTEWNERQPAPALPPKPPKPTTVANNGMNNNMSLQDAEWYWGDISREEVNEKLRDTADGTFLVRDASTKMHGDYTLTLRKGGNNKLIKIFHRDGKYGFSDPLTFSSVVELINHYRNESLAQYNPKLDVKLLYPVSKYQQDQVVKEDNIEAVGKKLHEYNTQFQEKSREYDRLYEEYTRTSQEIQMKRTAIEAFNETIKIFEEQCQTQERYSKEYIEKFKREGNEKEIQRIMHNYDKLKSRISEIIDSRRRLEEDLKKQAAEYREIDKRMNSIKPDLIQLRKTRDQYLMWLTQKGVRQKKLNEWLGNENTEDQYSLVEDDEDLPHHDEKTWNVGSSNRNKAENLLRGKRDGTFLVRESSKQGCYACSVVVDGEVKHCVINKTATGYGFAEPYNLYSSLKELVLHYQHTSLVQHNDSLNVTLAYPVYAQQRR
T6 sequence (Q9P2K8 whole entry): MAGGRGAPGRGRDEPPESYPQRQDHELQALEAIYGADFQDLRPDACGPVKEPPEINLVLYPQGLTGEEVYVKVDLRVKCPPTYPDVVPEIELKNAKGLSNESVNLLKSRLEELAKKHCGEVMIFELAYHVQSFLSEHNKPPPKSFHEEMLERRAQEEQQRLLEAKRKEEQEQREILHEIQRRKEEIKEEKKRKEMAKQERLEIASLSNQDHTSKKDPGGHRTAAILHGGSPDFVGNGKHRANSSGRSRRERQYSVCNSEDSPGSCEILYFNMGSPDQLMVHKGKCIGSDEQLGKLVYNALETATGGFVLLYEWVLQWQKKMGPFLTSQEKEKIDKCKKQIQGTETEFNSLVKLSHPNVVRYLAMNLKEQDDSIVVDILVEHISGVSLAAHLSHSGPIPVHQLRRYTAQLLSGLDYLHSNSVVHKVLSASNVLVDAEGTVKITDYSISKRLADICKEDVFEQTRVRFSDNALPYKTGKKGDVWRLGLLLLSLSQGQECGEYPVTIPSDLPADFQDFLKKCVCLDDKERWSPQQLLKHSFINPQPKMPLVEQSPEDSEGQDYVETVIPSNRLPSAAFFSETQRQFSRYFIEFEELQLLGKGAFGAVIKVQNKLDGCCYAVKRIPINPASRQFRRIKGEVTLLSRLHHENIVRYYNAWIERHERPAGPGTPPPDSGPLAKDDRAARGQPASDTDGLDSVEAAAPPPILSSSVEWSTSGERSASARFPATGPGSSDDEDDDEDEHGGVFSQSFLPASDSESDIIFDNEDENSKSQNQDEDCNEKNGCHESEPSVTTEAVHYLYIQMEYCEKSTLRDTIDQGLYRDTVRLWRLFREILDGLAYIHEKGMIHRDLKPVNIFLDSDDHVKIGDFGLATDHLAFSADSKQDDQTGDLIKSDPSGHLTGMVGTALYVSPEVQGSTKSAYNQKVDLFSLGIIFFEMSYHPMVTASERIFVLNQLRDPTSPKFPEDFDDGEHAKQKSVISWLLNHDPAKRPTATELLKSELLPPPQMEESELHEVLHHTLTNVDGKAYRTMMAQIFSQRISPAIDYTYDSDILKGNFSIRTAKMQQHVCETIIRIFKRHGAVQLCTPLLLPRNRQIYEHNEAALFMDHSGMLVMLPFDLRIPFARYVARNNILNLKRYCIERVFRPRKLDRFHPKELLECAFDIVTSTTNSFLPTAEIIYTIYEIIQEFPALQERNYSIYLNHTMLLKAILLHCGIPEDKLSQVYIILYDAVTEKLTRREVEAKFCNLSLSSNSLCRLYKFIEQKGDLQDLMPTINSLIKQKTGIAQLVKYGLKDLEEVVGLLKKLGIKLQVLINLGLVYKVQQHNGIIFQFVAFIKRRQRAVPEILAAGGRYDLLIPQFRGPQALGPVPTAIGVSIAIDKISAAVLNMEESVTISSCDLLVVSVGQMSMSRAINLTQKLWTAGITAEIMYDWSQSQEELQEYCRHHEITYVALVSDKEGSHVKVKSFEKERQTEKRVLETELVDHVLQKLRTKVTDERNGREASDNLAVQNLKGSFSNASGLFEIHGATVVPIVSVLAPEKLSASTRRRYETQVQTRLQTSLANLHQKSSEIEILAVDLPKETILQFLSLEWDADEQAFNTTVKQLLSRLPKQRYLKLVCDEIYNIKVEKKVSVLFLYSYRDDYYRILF
T2 sequence (P42336 whole entry E545K): as the sequence (P42336 whole entry H1047R) above, with E545K, R1047H counted along it
T2 sequence (P27986 whole entry partner): as the sequence (P27986 whole entry partner) above

Consider `O=C1C=CC2(C=C1)OCC(Cc1cc(C(F)(F)F)cc(C(F)(F)F)c1)C(=O)N2c1ccccc1` (racemic) [1c], for which the “% Residual Activity at 30 μM” value on CDK2/cyclin O is reported as 43.1 ± 1.0%. The IC50 in experiment [1] was 0.07 ± 0.01 µM.

With `O=C1C=CC2(C=C1)OCC(Cc1cn(-c3cccc(Cl)c3)nn1)C(=O)N2c1ccccc1` (stereo not drawn) [2d, 3-((1-(3-Chlorophenyl)-1H-1,2,3-triazol-4-yl)methyl)-5-phenyl-1-oxa-5-azaspiro[5.5]undeca-7,10-diene-4,9-dione], the “% Enzyme Activity (relative to DMSO controls)” value amounted to 206.92% at PI3K (p110a(E545K)/p85a); 102.60% at TRKC (setting [4]); 100.73% at EIF2AK2; 83.85% at RIPK5 (setting [4]); 102.49% on EIF2AK4; 131.08% in experiment [2]. Also, the “% Enzyme Activity (relative to DMSO controls)” value on PI3KC2A worked out at 123.51%; on PIP5K1C, 87.90%; at PI4K2A, 74.47%; at PI3KC3 it was 98.59%; at PIP5K1A it was 84.84%. In addition, the remaining activity at 30 µM on PI3K (p110a(E545K)/p85a) (setting [3]) amounted to 206%; at TRKC (setting [5]), 108%; on TRKC (setting [6]) it was 105 ± 3.9%; at EIF2AK2 (setting [3]), 101%; on RIPK5 (setting [5]), 86.1%; at RIPK5 (setting [6]), 85 ± 1.6%. Besides, the remaining activity at 30 µM on EIF2AK4 (setting [3]) turned out to be 104%; in [2] (setting [3]), 132%; on PI3KC2A (setting [3]), 122%; on PIP5K1C (setting [3]) it was 88.2%; on PI4K2A (setting [3]) it was 75.9%; on PI3KC3 (setting [3]), 99.8%. Besides, on PIP5K1A (setting [3]), the remaining activity at 30 µM turned out to be 86%. For the same compound, the IC50 in [1] (Mus musculus) was determined as 0.66 µM.
